{"source": "PubChem BioAssay AID1963982", "about": "(Molecular Pharmacology Branch, DTP, NCI, 2024);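 note: spheroids exposed to compounds for seven days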;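 for viability, T/C: 100% = DMSO vehicle control viability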", "tested_on": "313798-341-R-J2-PDC spheroids, viability", "test": "Anticancer human tumor 313798-341-R-J2-PDC patient-derived cervical squamous cell carcinoma cell line growth inhibition [PI3K]", "conditions": "spheroids with HUVEC and MSC; for IC50: curve of first compound; for viability, T/C: stronger effect = lower value", "outline": "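We assembled tumor spheroids that included a stromal compartment of HUVEC and MSCs, then exposed them to targeted agents alone and together with PI3K pathway inhibitors. Concentration series descended by half-log from clinically achievable Cmax levels. Viability served as the endpoint.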", "key": {"[1]": {"conditions": "second compound 0.00316 µM, first compound 0.0316 µM"}, "[2]": {"conditions": "second compound 0.00316 µM, first compound 0.1 µM"}, "[3]": {"conditions": "second compound 0.00316 µM, first compound 0.316 µM"}, "[4]": {"conditions": "second compound 0.00316 µM, first compound 1 µM"}, "[5]": {"conditions": "second compound 0.01 µM, first compound 0.0316 µM"}, "[6]": {"conditions": "second compound 0.01 µM, first compound 0.1 µM"}, "[7]": {"conditions": "second compound 0.01 µM, first compound 0.316 µM"}, "[8]": {"conditions": "second compound 0.01 µM, first compound 1 µM"}, "[9]": {"conditions": "second compound 0.0316 µM, first compound 0.0316 µM"}, "[10]": {"conditions": "second compound 0.0316 µM, first compound 0.1 µM"}, "[11]": {"conditions": "second compound 0.0316 µM, first compound 0.316 µM"}, "[12]": {"conditions": "second compound 0.0316 µM, first compound 1 µM"}, "[13]": {"conditions": "second compound 0.1 µM, first compound 0.0316 µM"}, "[14]": {"conditions": "second compound 0.1 µM, first compound 0.1 µM"}, "[15]": {"conditions": "second compound 0.1 µM, first compound 0.316 µM"}, "[16]": {"conditions": "second compound 0.1 µM, first compound 1 µM"}, "[17]": {"conditions": "second compound 0.316 µM, first compound 0.0316 µM"}, "[18]": {"conditions": "second compound 0.316 µM, first compound 0.1 µM"}, "[19]": {"conditions": "second compound 0.316 µM, first compound 0.316 µM"}, "[20]": {"conditions": "second compound 0.316 µM, first compound 1 µM"}, "[21]": {"conditions": "second compound 1 µM, first compound 0.0316 µM"}, "[22]": {"conditions": "second compound 1 µM, first compound 0.1 µM"}, "[23]": {"conditions": "second compound 1 µM, first compound 0.316 µM"}, "[24]": {"conditions": "second compound 1 µM, first compound 1 µM"}}}
{"smiles": "CCN1CCN(Cc2ccc(Nc3ncc(F)c(-c4cc(F)c5nc(C)n(C(C)C)c5c4)n3)nc2)CC1", "note": "+ COc1c(OCCCN2CCOCC2)ccc2c3n(c(=NC(=O)c4cnc(N)nc4)nc12)CCN3", "values": [{"measurement": "IC50", "setting": "second compound 0.00316 µM", "result": "> 1", "unit": "µM"}, {"measurement": "IC50", "setting": "second compound 0.01 µM", "result": "> 1", "unit": "µM"}, {"measurement": "IC50", "setting": "second compound 0.0316 µM", "result": "> 1", "unit": "µM"}, {"measurement": "IC50", "setting": "second compound 0.1 µM", "result": "< 0.00316", "unit": "µM"}, {"measurement": "IC50", "setting": "second compound 0.316 µM", "result": "< 0.00316", "unit": "µM"}, {"measurement": "IC50", "setting": "second compound 1 µM", "result": "< 0.00316", "unit": "µM"}, {"measurement": "viability, T/C", "setting": "second compound 0.00316 µM, first compound 0.00316 µM", "result": 99.7, "unit": "%"}, {"measurement": "viability, T/C", "setting": "second compound 0.00316 µM, first compound 0.01 µM", "result": 102, "unit": "%"}, {"measurement": "viability, T/C", "setting": "[1]", "result": 117, "unit": "%"}, {"measurement": "viability, T/C", "setting": "[2]", "result": 111, "unit": "%"}, {"measurement": "viability, T/C", "setting": "[3]", "result": 119, "unit": "%"}, {"measurement": "viability, T/C", "setting": "[4]", "result": 105, "unit": "%"}, {"measurement": "viability, T/C", "setting": "second compound 0.01 µM, first compound 0.00316 µM", "result": 98.6, "unit": "%"}, {"measurement": "viability, T/C", "setting": "second compound 0.01 µM, first compound 0.01 µM", "result": 91, "unit": "%"}, {"measurement": "viability, T/C", "setting": "[5]", "result": 99, "unit": "%"}, {"measurement": "viability, T/C", "setting": "[6]", "result": 125, "unit": "%"}, {"measurement": "viability, T/C", "setting": "[7]", "result": 113, "unit": "%"}, {"measurement": "viability, T/C", "setting": "[8]", "result": 102, "unit": "%"}, {"measurement": "viability, T/C", "setting": "second compound 0.0316 µM, first compound 0.00316 µM", "result": 83.7, "unit": "%"}, {"measurement": "viability, T/C", "setting": "second compound 0.0316 µM, first compound 0.01 µM", "result": 86.6, "unit": "%"}, {"measurement": "viability, T/C", "setting": "[9]", "result": 77.3, "unit": "%"}, {"measurement": "viability, T/C", "setting": "[10]", "result": 80.7, "unit": "%"}, {"measurement": "viability, T/C", "setting": "[11]", "result": 90, "unit": "%"}, {"measurement": "viability, T/C", "setting": "[12]", "result": 80, "unit": "%"}, {"measurement": "viability, T/C", "setting": "second compound 0.1 µM, first compound 0.00316 µM", "result": 43.1, "unit": "%"}, {"measurement": "viability, T/C", "setting": "second compound 0.1 µM, first compound 0.01 µM", "result": 44, "unit": "%"}, {"measurement": "viability, T/C", "setting": "[13]", "result": 43.4, "unit": "%"}, {"measurement": "viability, T/C", "setting": "[14]", "result": 36.6, "unit": "%"}, {"measurement": "viability, T/C", "setting": "[15]", "result": 41.9, "unit": "%"}, {"measurement": "viability, T/C", "setting": "[16]", "result": 45.9, "unit": "%"}, {"measurement": "viability, T/C", "setting": "second compound 0.316 µM, first compound 0.00316 µM", "result": 13.6, "unit": "%"}, {"measurement": "viability, T/C", "setting": "second compound 0.316 µM, first compound 0.01 µM", "result": 15.5, "unit": "%"}, {"measurement": "viability, T/C", "setting": "[17]", "result": 14.5, "unit": "%"}, {"measurement": "viability, T/C", "setting": "[18]", "result": 16.4, "unit": "%"}, {"measurement": "viability, T/C", "setting": "[19]", "result": 19.8, "unit": "%"}, {"measurement": "viability, T/C", "setting": "[20]", "result": 30, "unit": "%"}, {"measurement": "viability, T/C", "setting": "second compound 1 µM, first compound 0.00316 µM", "result": 11.4, "unit": "%"}, {"measurement": "viability, T/C", "setting": "second compound 1 µM, first compound 0.01 µM", "result": 14.3, "unit": "%"}, {"measurement": "viability, T/C", "setting": "[21]", "result": 13.9, "unit": "%"}, {"measurement": "viability, T/C", "setting": "[22]", "result": 11.7, "unit": "%"}, {"measurement": "viability, T/C", "setting": "[23]", "result": 18.3, "unit": "%"}, {"measurement": "viability, T/C", "setting": "[24]", "result": 27.4, "unit": "%"}]}
{"smiles": "CC1(C)CCC(CN2CCN(c3ccc(C(=O)NS(=O)(=O)c4ccc(NCC5CCOCC5)c([N+](=O)[O-])c4)c(Oc4cnc5[nH]ccc5c4)c3)CC2)=C(c2ccc(Cl)cc2)C1", "note": "+ CC(Nc1ccc2c(c1)OCCn1cc(N3C(=O)OCC3C(F)F)nc1-2)C(N)=O", "values": [{"measurement": "IC50", "setting": "second compound 0.00316 µM", "result": 5.51, "unit": "µM"}, {"measurement": "IC50", "setting": "second compound 0.01 µM", "result": 5.66, "unit": "µM"}, {"measurement": "IC50", "setting": "second compound 0.0316 µM", "result": 5.41, "unit": "µM"}, {"measurement": "IC50", "setting": "second compound 0.1 µM", "result": 4.71, "unit": "µM"}, {"measurement": "IC50", "setting": "second compound 0.316 µM", "result": 2.19, "unit": "µM"}, {"measurement": "IC50", "setting": "second compound 1 µM", "result": 0.609, "unit": "µM"}, {"measurement": "viability, T/C", "setting": "[1]", "result": 93.1, "unit": "%"}, {"measurement": "viability, T/C", "setting": "[2]", "result": 92.4, "unit": "%"}, {"measurement": "viability, T/C", "setting": "[3]", "result": 95.5, "unit": "%"}, {"measurement": "viability, T/C", "setting": "[4]", "result": 89.4, "unit": "%"}, {"measurement": "viability, T/C", "setting": "second compound 0.00316 µM, first compound 3.16 µM", "result": 81.3, "unit": "%"}, {"measurement": "viability, T/C", "setting": "second compound 0.00316 µM, first compound 10 µM", "result": 16.9, "unit": "%"}, {"measurement": "viability, T/C", "setting": "[5]", "result": 100, "unit": "%"}, {"measurement": "viability, T/C", "setting": "[6]", "result": 93.2, "unit": "%"}, {"measurement": "viability, T/C", "setting": "[7]", "result": 98.5, "unit": "%"}, {"measurement": "viability, T/C", "setting": "[8]", "result": 90.7, "unit": "%"}, {"measurement": "viability, T/C", "setting": "second compound 0.01 µM, first compound 3.16 µM", "result": 84.2, "unit": "%"}, {"measurement": "viability, T/C", "setting": "second compound 0.01 µM, first compound 10 µM", "result": 16.5, "unit": "%"}, {"measurement": "viability, T/C", "setting": "[9]", "result": 92.6, "unit": "%"}, {"measurement": "viability, T/C", "setting": "[10]", "result": 86.3, "unit": "%"}, {"measurement": "viability, T/C", "setting": "[11]", "result": 89.5, "unit": "%"}, {"measurement": "viability, T/C", "setting": "[12]", "result": 93.2, "unit": "%"}, {"measurement": "viability, T/C", "setting": "second compound 0.0316 µM, first compound 3.16 µM", "result": 78.3, "unit": "%"}, {"measurement": "viability, T/C", "setting": "second compound 0.0316 µM, first compound 10 µM", "result": 17, "unit": "%"}, {"measurement": "viability, T/C", "setting": "[13]", "result": 94.1, "unit": "%"}, {"measurement": "viability, T/C", "setting": "[14]", "result": 102, "unit": "%"}, {"measurement": "viability, T/C", "setting": "[15]", "result": 90.4, "unit": "%"}, {"measurement": "viability, T/C", "setting": "[16]", "result": 90.9, "unit": "%"}, {"measurement": "viability, T/C", "setting": "second compound 0.1 µM, first compound 3.16 µM", "result": 67.2, "unit": "%"}, {"measurement": "viability, T/C", "setting": "second compound 0.1 µM, first compound 10 µM", "result": 17, "unit": "%"}, {"measurement": "viability, T/C", "setting": "[17]", "result": 79.7, "unit": "%"}, {"measurement": "viability, T/C", "setting": "[18]", "result": 69.7, "unit": "%"}, {"measurement": "viability, T/C", "setting": "[19]", "result": 78.2, "unit": "%"}, {"measurement": "viability, T/C", "setting": "[20]", "result": 60.1, "unit": "%"}, {"measurement": "viability, T/C", "setting": "second compound 0.316 µM, first compound 3.16 µM", "result": 44.8, "unit": "%"}, {"measurement": "viability, T/C", "setting": "second compound 0.316 µM, first compound 10 µM", "result": 16.5, "unit": "%"}, {"measurement": "viability, T/C", "setting": "[21]", "result": 51.6, "unit": "%"}, {"measurement": "viability, T/C", "setting": "[22]", "result": 49.7, "unit": "%"}, {"measurement": "viability, T/C", "setting": "[23]", "result": 51.8, "unit": "%"}, {"measurement": "viability, T/C", "setting": "[24]", "result": 49.2, "unit": "%"}, {"measurement": "viability, T/C", "setting": "second compound 1 µM, first compound 3.16 µM", "result": 35.8, "unit": "%"}, {"measurement": "viability, T/C", "setting": "second compound 1 µM, first compound 10 µM", "result": 14, "unit": "%"}]}
